According to BindingDB's records for doi:10.1016/j.bmc.2014.04.036 (Amri, 2014):

Biological target: T1, Sodium/glucose cotransporter 1 (Homo sapiens, UniProt P13866)
T1 sequence (P13866 whole entry): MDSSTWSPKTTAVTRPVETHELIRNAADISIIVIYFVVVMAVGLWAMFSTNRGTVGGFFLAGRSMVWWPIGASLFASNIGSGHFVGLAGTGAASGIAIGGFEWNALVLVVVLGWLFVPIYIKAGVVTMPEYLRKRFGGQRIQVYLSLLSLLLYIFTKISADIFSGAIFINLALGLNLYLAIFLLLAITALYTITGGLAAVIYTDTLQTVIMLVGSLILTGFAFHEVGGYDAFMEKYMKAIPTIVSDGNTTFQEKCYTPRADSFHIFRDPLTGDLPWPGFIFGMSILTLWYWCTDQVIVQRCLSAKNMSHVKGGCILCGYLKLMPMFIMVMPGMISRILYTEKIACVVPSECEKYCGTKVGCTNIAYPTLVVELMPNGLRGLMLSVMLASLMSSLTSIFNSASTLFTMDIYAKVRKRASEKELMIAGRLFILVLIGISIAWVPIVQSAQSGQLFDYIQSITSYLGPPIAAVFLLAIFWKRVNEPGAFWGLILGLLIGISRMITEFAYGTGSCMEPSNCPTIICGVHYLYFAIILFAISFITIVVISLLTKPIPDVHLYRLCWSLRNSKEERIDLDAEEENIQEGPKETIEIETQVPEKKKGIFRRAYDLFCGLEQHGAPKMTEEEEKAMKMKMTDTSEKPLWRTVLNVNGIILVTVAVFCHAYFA
Experiment: Inhibition of human SGLT1 expressed in CHOK1 cells assessed as inhibition of [14C]-AMG uptake after 3 hrs by microbeta scintillation counting analysis

SMILES | IC50 [µM]
O=c1n(Cc2cc([C@@H]3O[C@H](CO)[C@@H](O)[C@H](O)[C@H]3O)ccc2Cl)nc2ccc(C(F)(F)F)cn12 [US8575114, I-5] | > 90
O=c1n(Cc2cc([C@@H]3O[C@H](CO)[C@@H](O)[C@H](O)[C@H]3O)ccc2Cl)nc2ccc(CO)cn12 [US8575114, I-6] | > 90
Cc1cc2nn(Cc3cc([C@@H]4O[C@H](CO)[C@@H](O)[C@H](O)[C@H]4O)ccc3Cl)c(=O)n2cc1Cl [US8575114, I-12] | > 90
